Experimental data reported in publication PMC3655514 (Acta crystallographica. Section D, Biological …, 2010).
Read-outs that look alike come from different tables or passages of the source.

How the values were obtained:
[1] = biological target: T1, pteridine reductase (TbPTR1) (Trypanosoma brucei, UniProt O76290); experiment: crystal structure at […] Å; format: biochemical
[2] = biological target: T1, pteridine reductase (TbPTR1); experiment: crystal structures; format: binding
[3] = biological target: T1, pteridine reductase (TbPTR1); experiment: crystal structure at […] Å; format: biochemical; remark: listed apart in the source
[4] = biological target: T1, pteridine reductase (TbPTR1); experiment: crystal structure at […] Å; format: biochemical; remark: listed apart in the source
[5] = biological target: T1, pteridine reductase (TbPTR1); experiment: crystal structure at […] Å; format: biochemical; remark: listed apart in the source

With `Nc1nc(N)nc(NC2CC2)n1` [Cyromazine, N-cyclopropyl-1,3,5-triazine-2,4,6-triamine] the Ki [1] was > 35000 nM.
`NC(=O)c1ccc[n+]([C@@H]2O[C@H](COP(=O)(O)OP(=O)(O)OC[C@H]3O[C@@H](n4cnc5c(N)ncnc54)[C@H](OP(=O)(O)O)[C@@H]3O)[C@@H](O)[C@H]2O)c1` [NADP+] was tested, and the “crystal structures (complexes with pemetrexed, trimetrexate, PY848)” value [2] was “Crystals of TbPTR1 in a binary complex with oxidized cofactor (NADP^+) were grown”.
In the case of `COc1ccc(OC)c(CCc2csc3nc(N)nc(N)c23)c1` [PY848, 2,4-diamino-5-[2-(2,5-dimethoxyphenyl)ethyl]thieno[2,3-d]-pyrimidine], the Ki [3] is reported as ~70 nM.
With `Nc1nc2[nH]cc(CCc3ccc(C(=O)N[C@@H](CCC(=O)O)C(=O)O)cc3)c2c(=O)[nH]1` [Pemetrexed, 2-{4-[2-(4-amino-2-oxo-3,5,7-triazabicyclo[4.3.0]nona-3,8,10-trien-9-yl)ethyl]benzoyl}aminopentanedioic acid] the Ki [4] was ~30 nM.
`COc1cc(NCc2ccc3nc(N)nc(N)c3c2C)cc(OC)c1OC` [Trimetrexate, 5-methyl-6-[(3,4,5-trimethoxyphenyl)aminomethyl]quinazoline-2,4-diamine] showed a Ki [5] of ~70 nM.
